Reference: the NIST ThermoML archive (doi:10.1021/je400056z)
Numbers after ± are expanded uncertainties.

Assay: xn = mol fraction of the nth substance listed
Details: Liquid, Vibrating tube method

`CCCCCCCCCCCCC` [tridecane] + O=C=O showed a mass density (353.12 K, 20000 kPa, x2 = 0.0955) of 732.3 ± 0.4 kg/m3, a mass density (353.12 K, 20000 kPa, x2 = 0.2526) of 735.2 ± 0.4 kg/m3 and a mass density (353.12 K, 21000 kPa, x2 = 0.0955) of 733.1 ± 0.4 kg/m3. The mass density (353.12 K, 21000 kPa, x2 = 0.2526) was 736 ± 0.4 kg/m3, the mass density (353.12 K, 22000 kPa, x2 = 0.0955) was 733.9 ± 0.4 kg/m3 and the mass density (353.12 K, 22000 kPa, x2 = 0.2526) was 736.8 ± 0.4 kg/m3. For the same compound, the mass density (353.12 K, 23000 kPa, x2 = 0.0955) was 734.6 ± 0.4 kg/m3, the mass density (353.12 K, 23000 kPa, x2 = 0.2526) was 737.6 ± 0.4 kg/m3 and the mass density (353.12 K, 24000 kPa, x2 = 0.0955) was 735.4 ± 0.5 kg/m3. It also gave a mass density (353.12 K, 24000 kPa, x2 = 0.2526) of 738.5 ± 0.4 kg/m3, a mass density (353.12 K, 25000 kPa, x2 = 0.0955) of 736.1 ± 0.5 kg/m3 and a mass density (353.12 K, 25000 kPa, x2 = 0.2526) of 739.2 ± 0.4 kg/m3. It also gave a mass density (353.13 K, 17000 kPa, x2 = 0.8978) of 677.4 ± 0.6 kg/m3, a mass density (353.13 K, 18000 kPa, x2 = 0.8978) of 689.5 ± 0.5 kg/m3 and a mass density (353.13 K, 20000 kPa, x2 = 0.8978) of 712.3 ± 0.5 kg/m3. For the same compound, the mass density (353.13 K, 21000 kPa, x2 = 0.8978) was 721.9 ± 0.5 kg/m3, the mass density (353.13 K, 22000 kPa, x2 = 0.8978) was 730.6 ± 0.5 kg/m3 and the mass density (353.13 K, 23000 kPa, x2 = 0.8978) was 738.3 ± 0.5 kg/m3. It also gave a mass density (353.13 K, 24000 kPa, x2 = 0.8978) of 745.5 ± 0.4 kg/m3, a mass density (353.13 K, 25000 kPa, x2 = 0.8978) of 752.2 ± 0.4 kg/m3 and a mass density (353.15 K, 8000 kPa, x2 = 0.5259) of 729.7 ± 0.3 kg/m3. It also gave a mass density (353.15 K, 9000 kPa, x2 = 0.5259) of 731.2 ± 0.3 kg/m3, a mass density (353.15 K, 10000 kPa, x2 = 0.5259) of 732.7 ± 0.3 kg/m3 and a mass density (353.15 K, 11000 kPa, x2 = 0.5259) of 734.2 ± 0.3 kg/m3. The mass density (353.15 K, 12000 kPa, x2 = 0.5259) was 735.6 ± 0.3 kg/m3, the mass density (353.15 K, 13000 kPa, x2 = 0.5259) was 737 ± 0.3 kg/m3 and the mass density (353.15 K, 14000 kPa, x2 = 0.5259) was 738.3 ± 0.3 kg/m3. For the same compound, the mass density (353.15 K, 15000 kPa, x2 = 0.5259) was 739.7 ± 0.3 kg/m3, the mass density (353.15 K, 16000 kPa, x2 = 0.5259) was 741 ± 0.4 kg/m3 and the mass density (353.15 K, 17000 kPa, x2 = 0.5259) was 742.3 ± 0.4 kg/m3. It also gave a mass density (353.15 K, 18000 kPa, x2 = 0.5259) of 743.6 ± 0.4 kg/m3, a mass density (353.15 K, 19000 kPa, x2 = 0.5259) of 744.9 ± 0.4 kg/m3 and a mass density (353.15 K, 20000 kPa, x2 = 0.5259) of 746 ± 0.4 kg/m3. For the same compound, the mass density (353.15 K, 21000 kPa, x2 = 0.5259) was 747.3 ± 0.4 kg/m3, the mass density (353.15 K, 22000 kPa, x2 = 0.5259) was 748.4 ± 0.4 kg/m3 and the mass density (353.15 K, 23000 kPa, x2 = 0.5259) was 749.6 ± 0.4 kg/m3. The mass density (353.15 K, 24000 kPa, x2 = 0.5259) was 750.6 ± 0.4 kg/m3, the mass density (353.15 K, 25000 kPa, x2 = 0.5259) was 751.8 ± 0.4 kg/m3 and the mass density (353.35 K, 16000 kPa, x2 = 0.7549) was 739.7 ± 0.5 kg/m3. It also gave a mass density (353.35 K, 17000 kPa, x2 = 0.7549) of 742.7 ± 0.4 kg/m3, a mass density (353.35 K, 18000 kPa, x2 = 0.7549) of 745.7 ± 0.4 kg/m3 and a mass density (353.35 K, 19000 kPa, x2 = 0.7549) of 748.7 ± 0.4 kg/m3. It also gave a mass density (353.35 K, 20000 kPa, x2 = 0.7549) of 751.8 ± 0.4 kg/m3, a mass density (353.35 K, 21000 kPa, x2 = 0.7549) of 754.9 ± 0.4 kg/m3 and a mass density (353.35 K, 22000 kPa, x2 = 0.7549) of 757.9 ± 0.4 kg/m3. The mass density (353.35 K, 23000 kPa, x2 = 0.7549) was 760.8 ± 0.4 kg/m3, the mass density (353.35 K, 24000 kPa, x2 = 0.7549) was 763.8 ± 0.4 kg/m3 and the mass density (353.35 K, 25000 kPa, x2 = 0.7549) was 766.7 ± 0.4 kg/m3. The mass density (363.07 K, 19000 kPa, x2 = 0.8978) was 671.9 ± 0.5 kg/m3, the mass density (363.07 K, 20000 kPa, x2 = 0.8978) was 681 ± 0.5 kg/m3 and the mass density (363.07 K, 21000 kPa, x2 = 0.8978) was 691.1 ± 0.5 kg/m3. The mass density (363.07 K, 22000 kPa, x2 = 0.8978) was 700.8 ± 0.5 kg/m3, the mass density (363.07 K, 23000 kPa, x2 = 0.8978) was 709.5 ± 0.5 kg/m3 and the mass density (363.07 K, 24000 kPa, x2 = 0.8978) was 717.3 ± 0.5 kg/m3. For the same compound, the mass density (363.07 K, 25000 kPa, x2 = 0.8978) was 724.8 ± 0.5 kg/m3, the mass density (363.11 K, 9000 kPa, x2 = 0.0955) was 715.7 ± 0.3 kg/m3 and the mass density (363.11 K, 9000 kPa, x2 = 0.2526) was 717.4 ± 0.3 kg/m3. The mass density (363.11 K, 10000 kPa, x2 = 0.0955) was 716.7 ± 0.3 kg/m3, the mass density (363.11 K, 10000 kPa, x2 = 0.2526) was 718.4 ± 0.3 kg/m3 and the mass density (363.11 K, 10000 kPa, x2 = 0.5259) was 723 ± 0.3 kg/m3. For the same compound, the mass density (363.11 K, 11000 kPa, x2 = 0.0955) was 717.7 ± 0.4 kg/m3, the mass density (363.11 K, 11000 kPa, x2 = 0.2526) was 719.5 ± 0.3 kg/m3 and the mass density (363.11 K, 11000 kPa, x2 = 0.5259) was 724.6 ± 0.3 kg/m3. For the same compound, the mass density (363.11 K, 12000 kPa, x2 = 0.0955) was 718.7 ± 0.4 kg/m3, the mass density (363.11 K, 12000 kPa, x2 = 0.2526) was 720.5 ± 0.4 kg/m3 and the mass density (363.11 K, 12000 kPa, x2 = 0.5259) was 726.2 ± 0.3 kg/m3. For the same compound, the mass density (363.11 K, 13000 kPa, x2 = 0.0955) was 719.6 ± 0.4 kg/m3, the mass density (363.11 K, 13000 kPa, x2 = 0.2526) was 721.5 ± 0.4 kg/m3 and the mass density (363.11 K, 13000 kPa, x2 = 0.5259) was 727.6 ± 0.3 kg/m3. The mass density (363.11 K, 14000 kPa, x2 = 0.0955) was 720.5 ± 0.4 kg/m3, the mass density (363.11 K, 14000 kPa, x2 = 0.2526) was 722.6 ± 0.4 kg/m3 and the mass density (363.11 K, 14000 kPa, x2 = 0.5259) was 729.2 ± 0.3 kg/m3. The mass density (363.11 K, 15000 kPa, x2 = 0.0955) was 721.5 ± 0.4 kg/m3, the mass density (363.11 K, 15000 kPa, x2 = 0.2526) was 723.6 ± 0.4 kg/m3 and the mass density (363.11 K, 15000 kPa, x2 = 0.5259) was 730.6 ± 0.4 kg/m3. The mass density (363.11 K, 16000 kPa, x2 = 0.0955) was 722.4 ± 0.4 kg/m3, the mass density (363.11 K, 16000 kPa, x2 = 0.2526) was 724.6 ± 0.4 kg/m3 and the mass density (363.11 K, 16000 kPa, x2 = 0.5259) was 732 ± 0.4 kg/m3. It also gave a mass density (363.11 K, 17000 kPa, x2 = 0.0955) of 723.3 ± 0.4 kg/m3, a mass density (363.11 K, 17000 kPa, x2 = 0.2526) of 725.5 ± 0.4 kg/m3 and a mass density (363.11 K, 17000 kPa, x2 = 0.5259) of 733.4 ± 0.4 kg/m3. It also gave a mass density (363.11 K, 18000 kPa, x2 = 0.0955) of 724.1 ± 0.4 kg/m3, a mass density (363.11 K, 18000 kPa, x2 = 0.2526) of 726.4 ± 0.4 kg/m3 and a mass density (363.11 K, 18000 kPa, x2 = 0.5259) of 734.7 ± 0.4 kg/m3. It also gave a mass density (363.11 K, 19000 kPa, x2 = 0.0955) of 725 ± 0.4 kg/m3, a mass density (363.11 K, 19000 kPa, x2 = 0.2526) of 727.4 ± 0.4 kg/m3 and a mass density (363.11 K, 19000 kPa, x2 = 0.5259) of 736 ± 0.4 kg/m3. It also gave a mass density (363.11 K, 20000 kPa, x2 = 0.0955) of 725.8 ± 0.4 kg/m3, a mass density (363.11 K, 20000 kPa, x2 = 0.2526) of 728.3 ± 0.4 kg/m3 and a mass density (363.11 K, 20000 kPa, x2 = 0.5259) of 737.3 ± 0.4 kg/m3. For the same compound, the mass density (363.11 K, 21000 kPa, x2 = 0.0955) was 726.6 ± 0.4 kg/m3, the mass density (363.11 K, 21000 kPa, x2 = 0.2526) was 729.2 ± 0.4 kg/m3 and the mass density (363.11 K, 21000 kPa, x2 = 0.5259) was 738.6 ± 0.4 kg/m3. It also gave a mass density (363.11 K, 22000 kPa, x2 = 0.0955) of 727.5 ± 0.4 kg/m3, a mass density (363.11 K, 22000 kPa, x2 = 0.2526) of 730.1 ± 0.4 kg/m3 and a mass density (363.11 K, 22000 kPa, x2 = 0.5259) of 739.9 ± 0.4 kg/m3. It also gave a mass density (363.11 K, 23000 kPa, x2 = 0.0955) of 728.3 ± 0.4 kg/m3, a mass density (363.11 K, 23000 kPa, x2 = 0.2526) of 731 ± 0.4 kg/m3 and a mass density (363.11 K, 23000 kPa, x2 = 0.5259) of 741.1 ± 0.4 kg/m3. It also gave a mass density (363.11 K, 24000 kPa, x2 = 0.0955) of 729.1 ± 0.5 kg/m3, a mass density (363.11 K, 24000 kPa, x2 = 0.2526) of 731.8 ± 0.4 kg/m3 and a mass density (363.11 K, 24000 kPa, x2 = 0.5259) of 742.3 ± 0.4 kg/m3. For the same compound, the mass density (363.11 K, 25000 kPa, x2 = 0.0955) was 729.9 ± 0.5 kg/m3, the mass density (363.11 K, 25000 kPa, x2 = 0.2526) was 732.7 ± 0.4 kg/m3 and the mass density (363.11 K, 25000 kPa, x2 = 0.5259) was 743.4 ± 0.4 kg/m3. For the same compound, the mass density (363.34 K, 16000 kPa, x2 = 0.7549) was 720.1 ± 0.4 kg/m3, the mass density (363.34 K, 17000 kPa, x2 = 0.7549) was 724.7 ± 0.4 kg/m3 and the mass density (363.34 K, 18000 kPa, x2 = 0.7549) was 728.3 ± 0.4 kg/m3. The mass density (363.34 K, 19000 kPa, x2 = 0.7549) was 730.8 ± 0.4 kg/m3, the mass density (363.34 K, 20000 kPa, x2 = 0.7549) was 734.2 ± 0.4 kg/m3 and the mass density (363.34 K, 21000 kPa, x2 = 0.7549) was 737.3 ± 0.4 kg/m3. It also gave a mass density (363.34 K, 22000 kPa, x2 = 0.7549) of 740.5 ± 0.4 kg/m3, a mass density (363.34 K, 23000 kPa, x2 = 0.7549) of 743.8 ± 0.4 kg/m3 and a mass density (363.34 K, 24000 kPa, x2 = 0.7549) of 746.9 ± 0.4 kg/m3. For the same compound, the mass density (363.34 K, 25000 kPa, x2 = 0.7549) was 750.1 ± 0.5 kg/m3.
